pIC50: −log10 of the molar value. Each block holds one compound with its values, some of them ahead of it.
Columns and labels:
[1] = tested on: Hep-3B human hepatocellular carcinoma xenograft; test: In vivo antitumor activity assay, Hep3B xenograft nude mice; parameters: species or system Balb/c Nude mice; conditions: for Hep3B tumor growth suppression compared with doxorubicin: 7.5 mg/kg/day p.o., doxorubicin 10 mg/kg p.o.; for antitumor activity by i.v. route compared with p.o. route: i.v., 7.5, 15, 30 mg/kg qd; for inhibition of Hep3B tumor growth (dose and time dependence): p.o., 7.5, 15, 30 mg/kg/day
Experimental: The Hep-3B tumor cell line was purchased from American Type Culture Collection (ATCC™HB-8064, human hepatocellular carcinoma cells). The culture medium contained DMEM, 90%; Fetal Bovine Serum, 10% and 1% penicillin-streptomycin. The tumor cells were incubated in an atmosphere containing 5% CO2 at 37° C.
Balb/c Nude mice used in this study were male, 4-6 weeks age, weighing 18-20 g and provided by National Animal Center. All animals were housed in Individually Ventilated Cages Racks (IVC Racks, 36 Mini Isolator system) under Specific Pathogen-Free (SPF) condition throughout the experiment. Each cage (in cm, 26.7 length×20.7 width×14.0 height) was sterilized with autoclave and contained 8 mice, and then the animals were maintained in a hygienic environment under controlled temperature (20-24° C.) and humidity (40%-70%) with 12 hour light/dark cycle. The animals were given free access to sterilized lab chow and sterilized distilled water ad libilum. All aspects of this work, i.e., housing, experimentation and disposal of animals were performed in general accordance with the Guide for the Care and Use of Laboratory Animals (National Academy Press, Washington, D.C., 1996).
(§1) In the xenotraft tumor model of human hepatocellular carcinoma cell lines (Hep-3B, ATCC HB-8064) in male Balb/c Nude mice, the compounds 49 at doses at 7.5, 15 and 30 mg/kg (i.v. or p.o., bid) was administered five days per week for four consecutive weeks by p.o, or i.v. and ceased at Day 28. The compounds 52 at doses at 7.5, 15 and 30 mg/kg (i.v. or p.o., qd) was administered five days per week for four consecutive weeks and ceased at Day 28. The tumor size, body weight was monitored and recorded for 28 days. Human hepatocellular carcinoma cells (HEP-3B ATCC HB-8064) with 2×10^6 cells in 0.1 ml were injected subcutaneously into the right flank of the mice. When the tumor growth reached >100 mm^3 in volume (assumed as day 0), the tumor-bearing animals were assigned into several groups (8 animals in each group) for study.
(§2) The body weight and tumor size were measured and recorded every 7 days during the experimental periods of 28 days. Tumor volume (mm^3) was estimated according to the formula of length×[…]×0.5 in mm^3. Tumor growth inhibition was calculated as T/C (treatment/control) by the following formula: T/C=(Tn−T0)/(Cn−C0)×100% (T0: Tumor volume of treated group in Day 0; Tn: Tumor volume of treated group in Day n; C0: Tumor volume of control group in Day 0; Cn: Tumor volume of control group in Day n).
The Hep-3B tumor cell line was purchased from American Type Culture Collection (ATCC HB-8064, human hepatocellular carcinoma cells). A culture medium of 90% DMEM, 10% Fetal Bovine Serum, supplemented with 1% penicillin-streptomycin, was used. The tumor cells were incubated in an atmosphere containing 5% CO2 at 37° C.
Balb/c Nude mice used in this stud were male, 4-6 weeks age, weighing 18-20 g and provided by National Animal Center. All animals were housed in individually ventilated cages racks (IVC Racks, 36 Mini Isolator system) under specific pathogen-free (SPF) conditions throughout the experiment. Each cage (in cm, 26.7 length×20.7 width×14.0 height) was sterilized with autoclave and contained eight mice. The animals were maintained in a hygienic environment under controlled temperature (20-24° C.) and humidity (40% -70%) with a 12 hour light/dark cycle. The animals were given free access to sterilized lab chow and sterilized distilled water ad libitum. All aspects of this work, i.e., housing, experimentation and disposal of animals, were performed in general accordance with the Guide for the Care and Use of Laboratory Animals (National Academy Press, Washington, D.C., 1996). […]

[2] = Body weight monitoring in Hep3B xenograft nude mice; assay type: in vivo, Balb/c Nude mice; conditions: during the course of antitumor evaluation (28 days)
Experimental: as §1, §2
In the xenograft tumor model of human hepatocellular carcinoma cell lines (Hep-3B, ATCC HB-8064) in male Balb/c Nude mice, compound 147 prepared in 9% (w/v) NaHCO3 solution at doses of 7.5, 15 and 30 mg/kg -i.v.or p.o., qd) was administered five days per week for four consecutive weeks and ceased at Day 28. The tumor size and body weight were monitored and recorded for 28 days. Human hepatocellular carcinoma cells (HEP-3,ATCC HB-8064) with 2 ×10^6 cells in 0.1 mL were injected subcutaneously into the right flank of the mice. […]
The body weight and tumor size were measured and recorded every seven days during the experiment periods of 28 days. […]

[3] = tested on: HL-60; test: MTT assay, HL-60 cells; assay type: cell-based; conditions: Homo sapiens
Experimental: (§3) MTT (3-(4,5-Dimethylthiazol-2-yl)-2,5-diphenyltetrazolium bromide) assays.^21,22 HL-60, HCT-116, Hep 3B, H460, Detroit 551 and HT29/FuR cells were treated with tested compounds for the indicated periods. After treatment, cells were washed once with PBS and incubated with MTT (Sigma, St. Louis, Mo., USA) for 2 h. The formazan precipitate was dissolved in 150 μL of DMSO, and the absorbance was measured with an ELISA reader at 570 nm.
(§4) HL-60, Hep 3B, H460, MES-SA, MES-SAID x5 and Detroit 551 cells were treated with vehicle or test compounds for 48 h. The cell growth rate was determined by MTT (3-(4,5-dimethyl-thiazol-2-yl)-2,5-diphenyltetrazoliun bromide) reduction assay.
as §3, with “assays.” for “assays.^21,22”, “HCT-116, A549,” for “HCT-116,”, “KB, Kb-VIN” for “H460, Detroit 551”, “DU145” for “HT29/FuR”
as §3, with “assays.” for “assays.^21,22”, “HL-60,” for “HL-60, HCT-116,”, “H460, A498, Colo205 and” for “H460,”, “551” for “551 and HT29/FuR”

[4] = tested on: HCT116; test: MTT assay, HCT-116 cells; assay type: cell-based; conditions: Homo sapiens
Experimental: as §3
as §3, with “assays.” for “assays.^21,22”, “HCT-116, A549,” for “HCT-116,”, “KB, Kb-VIN” for “H460, Detroit 551”, “DU145” for “HT29/FuR”

[5] = tested on: Hep3B; test: MTT assay, Hep 3B cells; assay type: cell-based; conditions: Homo sapiens
Experimental: as §3, §4
as §3, with “assays.” for “assays.^21,22”, “HCT-116, A549,” for “HCT-116,”, “KB, Kb-VIN” for “H460, Detroit 551”, “DU145” for “HT29/FuR”
as §3, with “assays.” for “assays.^21,22”, “HL-60,” for “HL-60, HCT-116,”, “H460, A498, Colo205 and” for “H460,”, “551” for “551 and HT29/FuR”

[6] = tested on: A549; test: MTT assay, A549 cells; assay type: cell-based; conditions: Homo sapiens, Table 5
Experimental: as §3, with “assays.” for “assays.^21,22”, “HCT-116, A549,” for “HCT-116,”, “KB, Kb-VIN” for “H460, Detroit 551”, “DU145” for “HT29/FuR”

[7] = tested on: KB; test: MTT assay, KB cells; assay type: cell-based; conditions: Homo sapiens, Table 5
Experimental: as §3, with “assays.” for “assays.^21,22”, “HCT-116, A549,” for “HCT-116,”, “KB, Kb-VIN” for “H460, Detroit 551”, “DU145” for “HT29/FuR”

[8] = tested on: Kb-VIN; test: MTT assay, Kb-VIN cells; assay type: cell-based; conditions: Homo sapiens, KBVIN, Table 5
Experimental: as §3, with “assays.” for “assays.^21,22”, “HCT-116, A549,” for “HCT-116,”, “KB, Kb-VIN” for “H460, Detroit 551”, “DU145” for “HT29/FuR”

[9] = tested on: DU145; test: MTT assay, DU145 cells; assay type: cell-based; conditions: Homo sapiens, DU-145, Table 5
Experimental: as §3, with “assays.” for “assays.^21,22”, “HCT-116, A549,” for “HCT-116,”, “KB, Kb-VIN” for “H460, Detroit 551”, “DU145” for “HT29/FuR”

[10] = oral and intravenous administration (CHM-2133-P); cited from earlier work
[11] = previous report; cited from earlier work
[12] = tested on: H460; test: MTT assay, H460 cells; assay type: cell-based; conditions: Homo sapiens, NCI-H460
Experimental: as §3, §4
as §3, with “assays.” for “assays.^21,22”, “HL-60,” for “HL-60, HCT-116,”, “H460, A498, Colo205 and” for “H460,”, “551” for “551 and HT29/FuR”

[13] = tested on: Detroit 551; test: MTT assay, Detroit 551 normal human cells; assay type: cell-based; conditions: Detroit 551
Experimental: as §3, §4
as §3, with “assays.” for “assays.^21,22”, “HL-60,” for “HL-60, HCT-116,”, “H460, A498, Colo205 and” for “H460,”, “551” for “551 and HT29/FuR”

[14] = tested on: MES-SA; test: MTT assay, MES-SA cells; assay type: cell-based; conditions: Homo sapiens, 48 hrs
Experimental: as §4

[15] = tested on: MES-SA/Dx5; test: MTT assay, MES-SA/Dx5 cells; assay type: cell-based, human; conditions: for pIC50: Homo sapiens, MES-SA/Dx5, 48 hrs; for Ratio Of SA/Dx5: IC50 MES-SA/Dx5 over IC50 MES-SA
Experimental: as §4

SMILES: COc1ccc2nc(-c3cccc(F)c3)cc(OP(=O)(O)O)c2c1OP(=O)(O)O [Compound 49, 2-(3-Fluorophenyl)-6-methoxyquinoline-4,5-diyl bis(dihydrogen phosphate)]
antitumor activity compared with doxorubicin ([1]; 7.5 mg/kg i.v. or p.o., bid, doxorubicin 5 mg/kg i.v. qd, 10 mg/kg p.o. qd): exceeded that of doxorubicin
antitumor activity (dose and time dependence) ([1]; 7.5, 15 and 30 mg/kg, i.v. or p.o., bid, five days per week for four weeks): dose- and time-dependent manner
body weight changes [2]: no significant body weight changes

pIC50 ([3]; Table 5, MTT): 7.15
pIC50 ([4]; Table 5): 7.15
pIC50 ([5]; Table 5, MTT): 7.15
pIC50 [6]: 6.89
pIC50 [7]: 6.89
pIC50 [8]: 6.72
pIC50 [9]: 6.89
SMILES: O=c1cc(-c2cccc3ccccc23)[nH]c2cc3c(cc12)OCO3 [Compound 151, 2-(1-Naphthalenyl)-6,7-methylenedioxyquinolin-4-one]

SMILES: O=c1cc(-c2cccc(OP(=O)(O)O)c2)[nH]c2ccc(N3CCCC3)cc12 [Compound 147, 3-(4-Oxo-6-(pyrrolidin-1-yl)-1,4-dihydroquinolin-2-yl)phenyl dihydrogen phosphate]
Hep3B tumor growth suppression compared with doxorubicin [1]: exceed that of 10 mg/kg doxorubicin
weight of Hep3B tumor relative to control ([1]; 30 mg/kg p.o., % of that of the control): 26.3%
antitumor activity by i.v. route compared with p.o. route [1]: slightly greater activity
inhibition of Hep3B tumor growth (dose and time dependence) [1]: dose- and time-dependent inhibition
body weight changes [2]: no significant body weight changes

SMILES: O=P(O)(O)Oc1cc(-c2ccccc2F)nc2cc3c(cc12)OCO3 [CHM-2133-P]
antitumor activity in vivo (earlier work) [10]: excellent antitumor activity
bio-conversion following administration [11]: rapid bio-conversion into its active molecule CHM-2133

SMILES: COc1ccc2[nH]c(-c3cccc(F)c3)cc(=O)c2c1OP(=O)(O)O [Compound 52, 2-(3-Fluorophenyl)-6-methoxy-4-oxo-1,4-dihydroquinolin-5-yl dihydrogen phosphate]
Hep3B tumor growth suppression compared with doxorubicin [1]: Significant tumor growth suppression
tumor suppression ([1]; 30 mg/kg/day oral dosing): Near complete tumor suppression
antitumor activity by i.v. route compared with p.o. route [1]: slight better antitumor activity
inhibition of Hep3B tumor growth (dose and time dependence) [1]: dose- and time-dependent inhibition
body weight changes [2]: no significant body weight changes

pIC50 ([3]; Table 3, B-2 series, 48 hrs): 6.44
pIC50 ([5]; Table 3, B-2 series, 48 hrs): 5.88
pIC50 ([12]; Table 3, B-2 series, 48 hrs): 6.07
melting point: 304 to 306 °C
SMILES: O=C1CC(c2ccccc2O)=Nc2ccc(N3CCCC3)cc21 [Compound 135, 2-(2-Hydroxyphenyl)-6-pyrrolidinoquinolin-4-one]
pIC50 ([13]; Homo sapiens, Table 3, B-2 series, 48 hrs): 4.60
pIC50 ([14]; Table 3, B-2 series): 6.07
pIC50 ([15]; Table 3, B-2 series): 6.00
Ratio Of SA/Dx5 ([15]; Table 3, B-2 series): 1.18

pIC50 ([3]; Table 2, B-1 series, 48 hrs): 6.64
pIC50 ([5]; Table 2, B-1 series, 48 hrs): 4.94
pIC50 ([12]; Table 2, B-1 series, 48 hrs): 4.61
melting point: 357 to 360 °C
SMILES: O=C1CC(c2cccc(O)c2)=Nc2ccc(N3CCOCC3)cc21 [Compound 137, 2-(3-Hydroxyphenyl)-6-morpholinoquinolin-4-one]
pIC50 ([13]; Homo sapiens, Table 2, B-1 series, 48 hrs): 5.00
pIC50 ([14]; Table 2, B-1 series): 5.44
pIC50 ([15]; Table 2, B-1 series): 5.14
Ratio Of SA/Dx5 ([15]; Table 2, B-1 series): 2.02

pIC50 ([3]; Table 1, 48 h, MTT): 7.10
pIC50 ([4]; Table 1, 48 h): 6.82
pIC50 ([5]; Table 1, 48 h, MTT): 6.89
pIC50 ([12]; Table 1, 48 h, MTT): 6.85
SMILES: O=c1cc(-c2ccccc2F)[nH]c2cc3c(cc12)OCO3 [CHM-2133, 2-(2-fluorphenyl)-6,7-methylenedioxyquinolin-4-one, reference compound]
pIC50 ([13]; Table 1, 48 h, MTT, normal human cell): 5.09
antitumor activity in vivo (earlier work) [10]: excellent antitumor activity

pIC50 ([3]; Table 5, MTT): 7.52
pIC50 ([4]; Table 5): 7.30
pIC50 ([5]; Table 5, MTT): 7.05
pIC50 [6]: 5.53
pIC50 [7]: 5.98
pIC50 [8]: 6.23
pIC50 [9]: 5.73
SMILES: O=c1cc(-c2coc3ccccc23)[nH]c2cc3c(cc12)OCO3 [Compound 156, 2-(3-Benzo[b]furyl)-6,7-methylenedioxyquinolin-4-one]

Reference: patent publication US8524740B2, “Synthesis and anticancer activity of aryl and heteroaryl-quinolin derivatives” (Tairx, Inc., priority 2010, dated 2013)
